# Assay results taken from PubChem BioAssay AID330 (DTP/NCI, 2004).
# Several values for one entry are separate records, joined by “and”; a condition that tells them apart may be missing. Identical values can stand only once. Toxic doses and inconclusive results are not listed.
# System: P388 leukemia ip, CD2F1 mice, survival T/C
# Test: NCI In Vivo Anticancer Drug Screen. Data for tumor model P388 Leukemia (intraperitoneal) in CD2F1 (CDF1) mice
# Conditions: endpoint: median survival time, higher = longer survival
# In short: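 Mice carrying the transplanted tumor received test compound or vehicle. Survival was recorded in each group, and the value is the treated-group measurement divided by that of the vehicle-treated control group.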
# [1] = dose: 50.0 mg/kg/injection, schedule: Q01DX005 (ip), vehicle: Klucel (hydroxypropylcellulose) (HPC)
# [2] = dose: 100.0 mg/kg/injection, schedule: Q01DX005 (ip), vehicle: Klucel (hydroxypropylcellulose) (HPC)
# [3] = dose: 100.0 mg/kg/injection, schedule: Q01DX001 (ip), vehicle: Klucel (hydroxypropylcellulose) (HPC)
# [4] = dose: 400.0 mg/kg/injection, schedule: Q01DX001 (ip), vehicle: Klucel (hydroxypropylcellulose) (HPC)
# [5] = dose: 60.0 mg/kg/injection, schedule: Q01DX005 (ip), vehicle: saline with Tween-80
# [6] = dose: 120.0 mg/kg/injection, schedule: Q01DX005 (ip), vehicle: saline with Tween-80
# [7] = dose: 50.0 mg/kg/injection, schedule: Q01DX009 (ip), vehicle: saline
# [8] = dose: 25.0 mg/kg/injection, schedule: Q01DX005 (ip), vehicle: saline with Tween-80
smiles,measurement,setting,value
CN(C)CCSc1cc(O)c2c(c1O)C(=O)c1ccccc1C2=O,T/C,"dose: 12.5 mg/kg/injection, schedule: Q04DX003 (ip), vehicle: water",107 % of control
same,T/C,"dose: 25.0 mg/kg/injection, schedule: Q01DX009 (ip), vehicle: water",102 % of control
same,T/C,"dose: 25.0 mg/kg/injection, schedule: Q04DX003 (ip), vehicle: water",98 % of control
same,T/C,"dose: 50.0 mg/kg/injection, schedule: Q01DX009 (ip), vehicle: water",103 % of control
same,T/C,"dose: 50.0 mg/kg/injection, schedule: Q04DX003 (ip), vehicle: water",102 % of control
same,T/C,"dose: 100.0 mg/kg/injection, schedule: Q01DX009 (ip), vehicle: water",102 % of control
same,T/C,"dose: 100.0 mg/kg/injection, schedule: Q04DX003 (ip), vehicle: water",102 % of control
same,T/C,"dose: 200.0 mg/kg/injection, schedule: Q01DX009 (ip), vehicle: water",97 % of control
same,T/C,"dose: 200.0 mg/kg/injection, schedule: Q04DX003 (ip), vehicle: water",118 % of control
CCOC(=O)C1Nc2ccc(Br)cc2C(C(=O)OCC)N1c1ccc(Br)cc1 (stereo not given),T/C,"dose: 50.0 mg/kg/injection, schedule: Q01DX009 (ip), vehicle: Klucel (hydroxypropylcellulose) (HPC)",102 % of control
same,T/C,"dose: 100.0 mg/kg/injection, schedule: Q01DX009 (ip), vehicle: Klucel (hydroxypropylcellulose) (HPC)",102 % of control
same,T/C,"dose: 200.0 mg/kg/injection, schedule: Q01DX009 (ip), vehicle: Klucel (hydroxypropylcellulose) (HPC)",94 % of control
CC1=CC(=O)[C@@H](O)[C@]2(C)[C@H]3[C@@]4(O)OC[C@]35[C@H]([C@@H](CO)[C@H]4O)[C@@H](OC3OC(CO)C(O)C(O)C3O)C(=O)O[C@@H]5C[C@@H]12 (stereo not given in full),T/C,"dose: 0.25 mg/kg/injection, schedule: Q01DX005 (ip), vehicle: Klucel (hydroxypropylcellulose) (HPC)",99 % of control
same,T/C,"dose: 0.5 mg/kg/injection, schedule: Q01DX005 (ip), vehicle: Klucel (hydroxypropylcellulose) (HPC)",99 % of control
same,T/C,"dose: 1.0 mg/kg/injection, schedule: Q01DX005 (ip), vehicle: Klucel (hydroxypropylcellulose) (HPC)",98 % of control
same,T/C,"dose: 1.87 mg/kg/injection, schedule: Q01DX005 (ip), vehicle: Klucel (hydroxypropylcellulose) (HPC)",96 % of control
same,T/C,"dose: 2.0 mg/kg/injection, schedule: Q01DX005 (ip), vehicle: Klucel (hydroxypropylcellulose) (HPC)",100 % of control
O=C1N(Cl)C(=O)C2(c3ccccc3-c3ccccc32)N1Cl,T/C,[1],100 % of control
same,T/C,[2],108 % of control
c1ccc2ccccc2c1,T/C,"dose: 50.0 mg/kg/injection, schedule: Q01DX009 (ip), vehicle: other",100 % of control
same,T/C,"dose: 100.0 mg/kg/injection, schedule: Q01DX009 (ip), vehicle: other",104 % of control
same,T/C,"dose: 200.0 mg/kg/injection, schedule: Q01DX009 (ip), vehicle: other",107 % of control
COc1ccc(S(=O)(=O)NC(=O)c2ccccc2)cc1,T/C,"dose: 50.0 mg/kg/injection, schedule: Q04DX003 (ip), vehicle: saline",103 % of control
same,T/C,"dose: 100.0 mg/kg/injection, schedule: Q04DX003 (ip), vehicle: saline",106 % of control and 97 % of control
same,T/C,"dose: 200.0 mg/kg/injection, schedule: Q04DX003 (ip), vehicle: saline",98 % of control and 104 % of control
same,T/C,"dose: 400.0 mg/kg/injection, schedule: Q04DX003 (ip), vehicle: saline",101 % of control
CN1C(=O)C(=C/C=C/N(C)c2ccccc2)C(=O)N(C)C1=O,T/C,"dose: 50.0 mg/kg/injection, schedule: Q01DX009 (ip), vehicle: saline with Tween-80",96 % of control
same,T/C,"dose: 100.0 mg/kg/injection, schedule: Q01DX009 (ip), vehicle: saline with Tween-80",95 % of control
same,T/C,"dose: 200.0 mg/kg/injection, schedule: Q01DX009 (ip), vehicle: saline with Tween-80",88 % of control
[O]=[Nb],T/C,"dose: 2.5 mg/kg/injection, schedule: Q01DX009 (ip), vehicle: saline with Tween-80",100 % of control
same,T/C,"dose: 5.0 mg/kg/injection, schedule: Q01DX009 (ip), vehicle: saline with Tween-80",100 % of control
c1cnc2c(c1)ccc1ncccc12,T/C,[1],104 % of control
same,T/C,[2],95 % of control
same,T/C,"dose: 200.0 mg/kg/injection, schedule: Q01DX005 (ip), vehicle: Klucel (hydroxypropylcellulose) (HPC)",97 % of control
COc1cc(C2N3Cc4ccccc4CN2c2ccccc23)cc(OC)c1OC,T/C,[3],101 % of control
same,T/C,"dose: 200.0 mg/kg/injection, schedule: Q01DX001 (ip), vehicle: Klucel (hydroxypropylcellulose) (HPC)",99 % of control
same,T/C,[4],102 % of control
CS(=O)(=O)CS(=O)(=O)OCCF,T/C,"dose: 12.5 mg/kg/injection, schedule: Q01DX005 (ip), vehicle: saline",188 % of control
same,T/C,"dose: 25.0 mg/kg/injection, schedule: Q01DX005 (ip), vehicle: saline",258 % of control and 285 % of control
same,T/C,"dose: 50.0 mg/kg/injection, schedule: Q01DX005 (ip), vehicle: saline",285 % of control
COc1ccc(C(=O)Nc2c(Cl)cccc2Cl)cc1OC,T/C,[5],94 % of control
same,T/C,[6],88 % of control
O=C(Nc1ccc(NC(=O)c2ccc(C3=NCCCN3)cc2)cc1)Nc1ccc(C2=NCCCN2)cc1,T/C,"dose: 10.0 mg/kg/injection, schedule: Q01DX009 (ip), vehicle: saline with Tween-80",163 % of control
same,T/C,"dose: 10.0 mg/kg/injection, schedule: Q01DX009 (ip), vehicle: saline",113 % of control
same,T/C,"dose: 20.0 mg/kg/injection, schedule: Q01DX009 (ip), vehicle: saline",159 % of control
BrCCC1CO1 (stereo not given),T/C,[7],98 % of control
same,T/C,"dose: 100.0 mg/kg/injection, schedule: Q01DX009 (ip), vehicle: saline",100 % of control
same,T/C,"dose: 200.0 mg/kg/injection, schedule: Q01DX009 (ip), vehicle: saline",117 % of control
C[C@]12CC[C@H](O)C[C@@]1(O)CC[C@@H]1[C@@H]2CC[C@]2(C)[C@@H](c3ccc(=O)oc3)C[C@H]3O[C@]132,T/C,"dose: 1.25 mg/kg/injection, schedule: Q01DX005 (ip), vehicle: saline + alcohol",107 % of control
same,T/C,"dose: 2.5 mg/kg/injection, schedule: Q01DX005 (ip), vehicle: saline + alcohol",104 % of control
same,T/C,"dose: 5.0 mg/kg/injection, schedule: Q01DX005 (ip), vehicle: saline + alcohol",116 % of control
same,T/C,"dose: 10.0 mg/kg/injection, schedule: Q01DX005 (ip), vehicle: saline + alcohol",94 % of control
COc1cc(C(C)c2cc3c(cc2OCC(C)=O)OCO3)cc(OC)c1OC (stereo not given),T/C,[5],105 % of control
same,T/C,[6],97 % of control
same,T/C,"dose: 240.0 mg/kg/injection, schedule: Q01DX005 (ip), vehicle: saline with Tween-80",106 % of control
Cn1c(-c2ccc(Br)cc2)cc2[nH]c(=S)nc(N)c2c1=O,T/C,[8],105 % of control
same,T/C,"dose: 50.0 mg/kg/injection, schedule: Q01DX005 (ip), vehicle: saline with Tween-80",100 % of control
same,T/C,"dose: 100.0 mg/kg/injection, schedule: Q01DX005 (ip), vehicle: saline with Tween-80",102 % of control
same,T/C,"dose: 200.0 mg/kg/injection, schedule: Q01DX005 (ip), vehicle: saline with Tween-80",96 % of control
Cn1c(COc2ccc(/C=N\N/C(N)=N/N=C/c3ccc(OCc4c[n+]5ccccc5n4C)cc3)cc2)c[n+]2ccccc12,T/C,"dose: 12.5 mg/kg/injection, schedule: Q01DX005 (ip), vehicle: saline with Tween-80",110 % of control
same,T/C,[8],112 % of control
CC(C)=C(C#N)NC(C)(C)C,T/C,"dose: 12.5 mg/kg/injection, schedule: Q01DX009 (ip), vehicle: saline",101 % of control
same,T/C,"dose: 25.0 mg/kg/injection, schedule: Q01DX009 (ip), vehicle: saline",100 % of control
same,T/C,[7],98 % of control and 94 % of control
CCn1c(Cl)c(/C=C2/N=C(c3ccccc3)OC2=O)c2ccccc21,T/C,"dose: 25.0 mg/kg/injection, schedule: Q01DX001 (ip), vehicle: saline with Tween-80",95 % of control
same,T/C,"dose: 50.0 mg/kg/injection, schedule: Q01DX001 (ip), vehicle: saline with Tween-80",86 % of control
same,T/C,[3],92 % of control
same,T/C,[4],86 % of control
CN(C)c1ccc(CCc2nc(N)nc3nccnc23)cc1,T/C,"dose: 50.0 mg/kg/injection, schedule: Q04DX003 (ip), vehicle: Klucel (hydroxypropylcellulose) (HPC)",96 % of control
same,T/C,"dose: 100.0 mg/kg/injection, schedule: Q04DX003 (ip), vehicle: Klucel (hydroxypropylcellulose) (HPC)",90 % of control
same,T/C,"dose: 200.0 mg/kg/injection, schedule: Q04DX003 (ip), vehicle: Klucel (hydroxypropylcellulose) (HPC)",96 % of control
same,T/C,"dose: 400.0 mg/kg/injection, schedule: Q04DX003 (ip), vehicle: Klucel (hydroxypropylcellulose) (HPC)",99 % of control
Cc1ccnc(NCCCCCCNc2nccc(C)n2)n1,T/C,"dose: 100.0 mg/kg/injection, schedule: Q04DX003 (ip), vehicle: saline with Tween-80",87 % of control
same,T/C,"dose: 200.0 mg/kg/injection, schedule: Q04DX003 (ip), vehicle: saline with Tween-80",98 % of control
same,T/C,"dose: 400.0 mg/kg/injection, schedule: Q04DX003 (ip), vehicle: saline with Tween-80",91 % of control
